Data: BigSolDB 2.1

With O=C(/C=C/c1ccc(O)c(O)c1)O[C@H](Cc1ccc(O)c(O)c1)C(=O)O the solubility (mole fraction) (in ethanol, 293.15 K) was 0.268, the solubility (mole fraction) (in ethanol, 298.15 K) was 0.295 and the solubility (mole fraction) (in ethanol, 303.15 K) was 0.328. It also gave a solubility (mole fraction) (in ethanol, 308.15 K) of 0.366, a solubility (mole fraction) (in ethanol, 313.15 K) of 0.408 and a solubility (mole fraction) (in ethanol, 318.15 K) of 0.455. For the same compound, the solubility (mole fraction) (in methanol, 293.15 K) was 0.28, the solubility (mole fraction) (in methanol, 298.15 K) was 0.314 and the solubility (mole fraction) (in methanol, 303.15 K) was 0.358. For the same compound, the solubility (mole fraction) (in methanol, 308.15 K) was 0.399, the solubility (mole fraction) (in methanol, 313.15 K) was 0.443 and the solubility (mole fraction) (in methanol, 318.15 K) was 0.494. The solubility (mole fraction) (in water, 293.15 K) was 0.0135, the solubility (mole fraction) (in water, 298.15 K) was 0.0151 and the solubility (mole fraction) (in water, 303.15 K) was 0.0165. It also gave a solubility (mole fraction) (in water, 308.15 K) of 0.0185, a solubility (mole fraction) (in water, 313.15 K) of 0.0209 and a solubility (mole fraction) (in water, 318.15 K) of 0.0248.
